This note sets out measurements from patent US20090117083A1, “IMMUNOMODULATORY ALKALOIDS” (M N L PHARMA LIMITED, priority 2004, published 2009).

The target of assay [1] is T1, α-L-fucosidase (Bos taurus, UniProt Q2KIM0).
T1 construct: purchased Sigma
T1 sequence (Q2KIM0 23-468): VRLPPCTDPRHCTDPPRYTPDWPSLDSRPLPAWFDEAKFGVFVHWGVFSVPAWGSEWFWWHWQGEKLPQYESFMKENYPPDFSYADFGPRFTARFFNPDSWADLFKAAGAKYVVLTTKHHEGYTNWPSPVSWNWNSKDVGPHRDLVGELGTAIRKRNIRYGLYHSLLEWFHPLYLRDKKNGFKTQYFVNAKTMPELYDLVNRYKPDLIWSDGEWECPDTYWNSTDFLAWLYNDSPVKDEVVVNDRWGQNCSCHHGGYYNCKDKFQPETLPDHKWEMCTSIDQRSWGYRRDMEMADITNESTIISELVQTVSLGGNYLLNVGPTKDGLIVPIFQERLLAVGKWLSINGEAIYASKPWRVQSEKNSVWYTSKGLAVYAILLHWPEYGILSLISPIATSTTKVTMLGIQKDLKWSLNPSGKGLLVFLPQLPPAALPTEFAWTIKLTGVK
As to the kind of experiment: Glycosidase inhibition: α-L-fucosidase. The conditions noted are these: 1 mg/ml; read-out: % inhibition, fucosidase. In kind it is biochemical, Bovine. The method, then:
(§1) All enzymes were purchased from Sigma, as were the appropriate p-nitrophenyl substrates. Assays were carried out in microtitre plates. Enzymes were assayed in 0.1M citric acid/0.2M di-sodium hydrogen phosphate (McIlvaine) buffers at the optimum pH for the enzyme. All assays were carried out at 20° C. For screening assays the incubation assay consisted of 10 μl of enzyme solution, 10 μl of inhibitor solution (made up in water) and 50 μl of the appropriate 5 mM p-nitrophenyl substrate (3.57 mM final conc.) made up in McIlvaine buffer at the optimum pH for the enzyme.
(§2) The reactions were stopped with 0.4M glycine (pH 10.4) during the exponential phase of the reaction, which was determined at the beginning of the assay using blanks with water, which were incubated for a range of time periods to measure the reaction rate using 5 mM substrate solution. Endpoint absorbances were read at 405 nm with a Biorad microtitre plate reader (Benchmark). Water was substituted for the inhibitors in the blanks.

Assay [2] concerns N-acetyl-β-D-glucosaminidase. Put plainly: Glycosidase inhibition: N-acetyl-β-D-glucosaminidase. The conditions noted are these: 1 mg/ml. In kind it is biochemical, Bovine. The method, then: as §1, §2
Assay [3] concerns α-D-glucosidase. As to the kind of experiment: Glycosidase inhibition: α-D-glucosidase, Bacillus. The conditions noted are these: 1 mg/ml. In kind it is biochemical, Bacillus stearothermophilus. The method, then: as §1, §2
Assay [4] concerns glycosidase enzymes of Table 4.1. As to the kind of experiment: Glycosidase inhibition screening, whole enzyme panel. In kind it is biochemical. The conditions noted are these: 1 mg/ml. How it is done:
as §1, §2

The subject of assay [5] is spleen cells from Leishmania major infected BALB/c mice. As to the kind of experiment: Th1:Th2 response in non-healing leishmaniasis model, spleen cells ex vivo. The format is cell-based. The conditions noted are these: for IFN-γ: Table 10.1.
Assay [6] has as its system Naringinase. As to the kind of experiment: Glycosidase inhibition: Naringinase. In kind it is biochemical, Penecillium decumbens. The conditions noted are these: 1 mg/ml. How it is done: as §1, §2
Assay [7] deals with T2, α-D-mannosidase (Canavalia ensiformis, UniProt C0HJB3).
T2 construct: purchased Sigma
T2 sequence (C0HJB3 whole entry): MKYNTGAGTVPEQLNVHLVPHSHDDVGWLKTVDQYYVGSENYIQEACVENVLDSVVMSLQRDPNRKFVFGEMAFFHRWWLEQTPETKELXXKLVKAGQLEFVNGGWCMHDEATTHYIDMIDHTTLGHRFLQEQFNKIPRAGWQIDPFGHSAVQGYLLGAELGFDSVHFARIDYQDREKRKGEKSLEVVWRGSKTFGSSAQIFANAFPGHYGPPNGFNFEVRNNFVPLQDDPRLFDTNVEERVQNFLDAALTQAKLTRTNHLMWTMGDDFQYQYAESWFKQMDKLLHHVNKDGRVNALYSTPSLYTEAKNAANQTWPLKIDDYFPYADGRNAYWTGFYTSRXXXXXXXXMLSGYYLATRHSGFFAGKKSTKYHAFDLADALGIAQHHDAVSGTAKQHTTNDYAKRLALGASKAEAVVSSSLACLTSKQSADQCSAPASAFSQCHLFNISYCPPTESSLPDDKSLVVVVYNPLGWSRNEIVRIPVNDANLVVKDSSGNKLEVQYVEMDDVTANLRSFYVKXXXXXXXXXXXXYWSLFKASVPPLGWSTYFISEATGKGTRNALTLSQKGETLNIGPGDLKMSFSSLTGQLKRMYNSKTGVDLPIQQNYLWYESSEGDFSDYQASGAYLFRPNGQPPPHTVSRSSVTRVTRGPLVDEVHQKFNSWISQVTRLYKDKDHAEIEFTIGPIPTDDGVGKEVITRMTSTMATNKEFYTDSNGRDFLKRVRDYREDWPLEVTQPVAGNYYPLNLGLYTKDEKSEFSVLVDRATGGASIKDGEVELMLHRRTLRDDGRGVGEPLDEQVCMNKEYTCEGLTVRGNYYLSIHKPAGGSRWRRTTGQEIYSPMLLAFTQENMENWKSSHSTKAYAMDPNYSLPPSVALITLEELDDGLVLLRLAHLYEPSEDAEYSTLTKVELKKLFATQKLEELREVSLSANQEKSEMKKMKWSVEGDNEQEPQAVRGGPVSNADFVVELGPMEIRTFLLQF
As to the kind of experiment: Glycosidase inhibition: α-D-mannosidase. The format is biochemical, Jack beans (Canavalia ensiformis). The conditions noted are these: read-out: % inhibition, mannosidase. How it is done: All enzymes were purchased from Sigma, as were the appropriate p-nitrophenyl substrates. Assays were carried out in microtitre plates. Enzymes were assayed in 0.1M citric acid/0.2M di-sodium hydrogen phosphate (McIlvaine) buffers at the optimum pH for the enzyme. All assays were carried out at 20° C.
Endpoint absorbances were read at 405 nm with a Biorad microtitre plate reader (Benchmark). Water was substituted for the inhibitors in the blanks.

Assay [8] has as its system Influenza vaccine-specific IgG, IgG1 and IgG2a. Details: species or system Balb/c mice. The conditions noted are these: mouse, in vivo.
Assay [9] concerns the target T3, α-D-glucosidase (Oryza sativa subsp. japonica, UniProt Q653V7).
T3 construct: purchased Sigma
Put plainly: Glycosidase inhibition: α-D-glucosidase, rice. The conditions noted are these: 1 mg/ml; read-out: % inhibition, gluc (rice). In kind it is biochemical, rice (Oryza sativa). The method, then: as §1, §2

The test system of assay [10] is spleen cells. Put plainly: Cytokine modulation in spleen cells (IFN-γ). In kind it is cell-based, BALB/c mice. How it is done: BALB/c male and female mice bred and maintained at the University of Strathclyde under conventional conditions were used at varying age.
Cells suspensions were prepared by using the end of a syringe and grinding the spleen through a wire mesh. The cell suspension was then centrifuged at 1000 rpm for 5 minutes. To remove the erythrocytes, the cell pellet was resuspended in Boyle's solution (Tris 0.17M & Ammonium Chloride 0.16M) and centrifuged again for 5 minutes. The pellet was then washed in medium a further two times, then resuspended in 3 mls medium. A cell count was then carried out.
All spleen cell experiments were carried out in 96-well tissue culture plates. […] Unstimulated wells contained 100 μl of cells and 100 μl of medium. The stimulated wells contained 100 μl of cells plus 50 μl of LPS at 1 μg/ml or 50 μl anti-CD3 at 0.5 μg/ml and 50 μl of medium. The remaining wells contained 100 μl cells, 5 μl of MNLP compound and either 50 μl of anti-CD3 or medium alone.
The appropriate Mabs and standards were used according to the protocol described for IL-12 (described in Example 1, above).

Assay [11] relates to β-D-glucosidase. Put plainly: Glycosidase inhibition: β-D-glucosidase, almond. The format is biochemical, Almonds (Prunus sp.). The conditions noted are these: for % inhibition, glucosidase: 1 mg/ml. How it is done: as §1, §2
The subject of assay [12] is dendritic cells. The conditions noted are these: treatment alone.
In assay [13] the target is T4, rabbit small intestine trehalase (Oryctolagus cuniculus, UniProt P19813).
T4 construct: from tissue; host or cells: rabbit small intestine
Put plainly: Inhibition of rabbit small intestine trehalase. The format is biochemical.

Assay [14] deals with T5, rabbit small intestine sucrase (Oryctolagus cuniculus, UniProt P07768).
T5 construct: from tissue; host or cells: rabbit small intestine
T5 sequence (P07768 1008-1827 limits assumed): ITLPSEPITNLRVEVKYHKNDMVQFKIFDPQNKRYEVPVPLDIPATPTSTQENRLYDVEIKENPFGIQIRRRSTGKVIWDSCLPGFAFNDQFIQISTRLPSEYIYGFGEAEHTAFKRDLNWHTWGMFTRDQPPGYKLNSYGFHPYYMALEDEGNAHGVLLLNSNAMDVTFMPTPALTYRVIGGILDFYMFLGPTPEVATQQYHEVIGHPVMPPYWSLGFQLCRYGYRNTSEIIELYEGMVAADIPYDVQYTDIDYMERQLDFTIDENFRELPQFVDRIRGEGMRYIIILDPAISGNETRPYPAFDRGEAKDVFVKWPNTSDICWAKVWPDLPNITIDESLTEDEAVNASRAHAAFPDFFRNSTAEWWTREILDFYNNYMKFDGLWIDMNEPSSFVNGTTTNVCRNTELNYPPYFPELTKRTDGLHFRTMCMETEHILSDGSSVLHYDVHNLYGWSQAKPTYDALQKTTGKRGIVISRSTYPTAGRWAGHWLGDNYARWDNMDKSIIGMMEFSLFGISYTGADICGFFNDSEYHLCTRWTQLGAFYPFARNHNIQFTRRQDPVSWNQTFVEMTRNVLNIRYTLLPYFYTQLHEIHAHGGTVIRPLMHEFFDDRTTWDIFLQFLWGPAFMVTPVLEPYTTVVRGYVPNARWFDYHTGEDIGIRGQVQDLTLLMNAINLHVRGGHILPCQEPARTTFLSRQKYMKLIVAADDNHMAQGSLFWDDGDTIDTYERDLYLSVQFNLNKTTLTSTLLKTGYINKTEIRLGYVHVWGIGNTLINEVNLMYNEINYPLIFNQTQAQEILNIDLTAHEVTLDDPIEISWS
T5 sequence (P07768 2-1007 partner limits assumed): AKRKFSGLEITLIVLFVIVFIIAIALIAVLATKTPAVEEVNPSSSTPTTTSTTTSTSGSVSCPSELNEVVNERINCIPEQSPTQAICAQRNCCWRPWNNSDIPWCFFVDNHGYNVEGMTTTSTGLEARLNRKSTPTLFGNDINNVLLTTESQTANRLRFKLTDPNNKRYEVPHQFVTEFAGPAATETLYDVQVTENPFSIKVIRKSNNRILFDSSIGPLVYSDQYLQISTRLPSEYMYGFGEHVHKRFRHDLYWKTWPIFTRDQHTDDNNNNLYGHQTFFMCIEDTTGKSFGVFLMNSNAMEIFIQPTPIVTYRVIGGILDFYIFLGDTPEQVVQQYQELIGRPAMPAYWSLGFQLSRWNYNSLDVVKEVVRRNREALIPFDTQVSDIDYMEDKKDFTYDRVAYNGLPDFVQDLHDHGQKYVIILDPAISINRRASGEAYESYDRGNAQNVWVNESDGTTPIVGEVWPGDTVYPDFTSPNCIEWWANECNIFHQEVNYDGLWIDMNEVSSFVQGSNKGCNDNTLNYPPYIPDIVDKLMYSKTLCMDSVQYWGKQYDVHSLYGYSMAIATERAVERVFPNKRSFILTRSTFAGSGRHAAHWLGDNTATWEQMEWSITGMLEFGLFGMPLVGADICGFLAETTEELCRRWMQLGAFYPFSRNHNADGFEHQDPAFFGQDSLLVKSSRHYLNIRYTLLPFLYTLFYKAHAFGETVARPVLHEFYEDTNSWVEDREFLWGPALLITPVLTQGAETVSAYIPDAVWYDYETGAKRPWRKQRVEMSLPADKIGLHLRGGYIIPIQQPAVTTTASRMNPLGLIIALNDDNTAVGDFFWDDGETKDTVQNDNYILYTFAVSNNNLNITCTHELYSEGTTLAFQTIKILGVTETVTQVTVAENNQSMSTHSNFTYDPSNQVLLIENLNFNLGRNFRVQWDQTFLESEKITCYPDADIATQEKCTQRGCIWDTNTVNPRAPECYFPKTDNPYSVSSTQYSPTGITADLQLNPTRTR
As to the kind of experiment: Inhibition of rabbit small intestine sucrase. The format is biochemical. The conditions noted are these: 700 μM.

Assay [15] deals with T6, α-D-glucosidase (Saccharomyces cerevisiae, UniProt P53341).
T6 construct: purchased Sigma
T6 sequence (P53341 whole entry): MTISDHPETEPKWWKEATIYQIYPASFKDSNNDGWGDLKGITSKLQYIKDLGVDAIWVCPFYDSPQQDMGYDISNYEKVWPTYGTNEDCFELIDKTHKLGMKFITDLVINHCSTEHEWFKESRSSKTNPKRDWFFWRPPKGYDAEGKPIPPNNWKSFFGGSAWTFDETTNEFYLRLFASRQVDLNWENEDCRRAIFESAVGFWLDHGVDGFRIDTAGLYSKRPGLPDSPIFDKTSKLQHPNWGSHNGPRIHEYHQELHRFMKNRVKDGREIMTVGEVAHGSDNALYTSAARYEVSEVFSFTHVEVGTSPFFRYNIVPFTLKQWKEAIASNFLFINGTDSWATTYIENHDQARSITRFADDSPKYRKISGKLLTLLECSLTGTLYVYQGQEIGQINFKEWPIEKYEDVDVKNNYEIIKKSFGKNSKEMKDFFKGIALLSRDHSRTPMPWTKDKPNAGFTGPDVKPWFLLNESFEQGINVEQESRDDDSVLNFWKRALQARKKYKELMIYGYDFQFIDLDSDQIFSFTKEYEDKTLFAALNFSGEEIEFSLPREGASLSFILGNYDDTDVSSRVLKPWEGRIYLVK
As to the kind of experiment: Glycosidase inhibition (p-nitrophenyl substrate): α-D-glucosidase, yeast. In kind it is biochemical, Saccharomyces cerevisiae (Baker's yeast). The method, then: as §1, §2

Assay [16] addresses T7, α-D-galactosidase (Coffea arabica, UniProt Q42656).
T7 construct: purchased Sigma
Put plainly: Glycosidase inhibition: α-D-galactosidase. The format is biochemical, Green coffee beans (Coffea sp.). The conditions noted are these: 1 mg/ml; first galactosidase line; read-out: % inhibition, galactosidase. How it is done:
as §1, §2

Assay [17] deals with β-D-galactosidase. As to the kind of experiment: Glycosidase inhibition: β-D-galactosidase. The format is biochemical, Bovine. The conditions noted are these: 1 mg/ml; second galactosidase line. The method, then: as §1, §2
Assay [18] has as its target T8, rabbit small intestine lactase (Oryctolagus cuniculus, UniProt P09849).
T8 construct: from tissue; host or cells: rabbit small intestine
Put plainly: Inhibition of rabbit small intestine lactase. The format is biochemical.

For assay [19], the system named is Na^+-dependent D-glucose uptake. Put plainly: Na+-dependent D-glucose uptake into intestinal brush border membrane vesicles. The format is biochemical, ovine.
The target in assay [20] is rabbit gut mucosa α-D-glucosidase. Put plainly: Inhibition of rabbit gut mucosa α-D-glucosidase. In kind it is biochemical.

Structures are written as SMILES. Some results are limits rather than exact numbers.

T3 sequence (Q653V7 34-885): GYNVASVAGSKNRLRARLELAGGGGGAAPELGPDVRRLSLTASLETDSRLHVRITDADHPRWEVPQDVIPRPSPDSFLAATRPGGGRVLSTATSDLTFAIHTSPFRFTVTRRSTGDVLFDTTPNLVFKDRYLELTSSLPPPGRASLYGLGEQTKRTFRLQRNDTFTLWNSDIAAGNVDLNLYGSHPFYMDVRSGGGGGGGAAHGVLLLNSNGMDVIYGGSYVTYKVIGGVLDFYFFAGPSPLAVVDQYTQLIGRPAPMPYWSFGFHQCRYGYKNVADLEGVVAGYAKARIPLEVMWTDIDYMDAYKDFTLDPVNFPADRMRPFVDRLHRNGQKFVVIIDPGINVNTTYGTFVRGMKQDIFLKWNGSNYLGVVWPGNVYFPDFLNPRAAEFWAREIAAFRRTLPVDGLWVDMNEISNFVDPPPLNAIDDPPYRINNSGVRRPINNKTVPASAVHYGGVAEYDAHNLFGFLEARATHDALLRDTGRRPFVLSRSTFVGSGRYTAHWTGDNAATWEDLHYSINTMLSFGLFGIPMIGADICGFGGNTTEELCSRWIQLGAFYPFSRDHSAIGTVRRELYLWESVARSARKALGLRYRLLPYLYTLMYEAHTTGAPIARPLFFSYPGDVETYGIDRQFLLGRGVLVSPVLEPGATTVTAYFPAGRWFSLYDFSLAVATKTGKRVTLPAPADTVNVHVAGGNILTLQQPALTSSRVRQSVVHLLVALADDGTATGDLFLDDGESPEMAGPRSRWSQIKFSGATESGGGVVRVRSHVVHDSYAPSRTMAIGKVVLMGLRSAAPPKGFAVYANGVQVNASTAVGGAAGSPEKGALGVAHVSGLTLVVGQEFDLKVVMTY
T7 sequence (Q42656 16-378): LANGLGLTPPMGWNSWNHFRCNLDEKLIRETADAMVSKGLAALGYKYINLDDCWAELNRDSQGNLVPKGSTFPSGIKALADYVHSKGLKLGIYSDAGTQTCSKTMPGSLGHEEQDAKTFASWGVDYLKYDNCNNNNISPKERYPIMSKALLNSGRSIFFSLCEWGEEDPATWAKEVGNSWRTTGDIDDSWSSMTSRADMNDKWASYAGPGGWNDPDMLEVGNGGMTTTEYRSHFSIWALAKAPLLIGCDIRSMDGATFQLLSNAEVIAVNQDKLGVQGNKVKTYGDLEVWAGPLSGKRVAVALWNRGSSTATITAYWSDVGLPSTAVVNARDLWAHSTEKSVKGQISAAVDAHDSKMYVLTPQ

As to `OC[C@H]1[C@@H](O)[C@H](O)[C@H]2[C@@H](O)[C@@H](O)CN21` [3,7-diepi-casuarine (10), (1R,2R,3S,6S,7R,7aR)-3-(hydroxymethyl)-1,2,6,7-tetrahydroxypyrolizidine], the inhibition at 1000 µg/mL in assay [1] turned out to be 5%; in assay [7] it was 8%; in assay [9], 7%. Further, the “% inhibition, N-acetyl-β-gluc” value in assay [2] is given as −6%. In addition, in assay [3], the “% inhibition, gluc (Bacillus)” value is listed as −7%. Moreover, the “inhibition of the enzymes tested” value in [4] was “do not significantly inhibit any of the enzymes tested”. Moreover, the IFN-γ in assay [5] (+ L. major Ag) is 5.5 ng/mL; in [5] (treatment alone), ~0.5 ng/mL; in assay [10] (Table 3.1, + αCD3) it was 13.50 ng/mL; in [10] (Table 3.1, treatment alone), 0.22 ng/mL. Besides, in assay [5] (Table 10.2, + αCD3), the IL-5 turned out to be 150 pg/mL. In addition, the “Th2-skewed immune response profile” value in assay [5] (ex vivo) is reported as “clearly reversed”. The “% inhibition, Naringinase” value in [6] came out at 6%. In addition, the “influenza-specific IgG1 response versus vaccine alone” value in assay [8] is “statistically significant increased”. For the same molecule, the “influenza-specific IgG2a responses versus vaccine alone” value in assay [8] is reported as “No significant differences”. The “influenza-specific IgGtotal response versus vaccine alone” value in assay [8] is “statistically significant increased”. Also, the “% inhibition, glucosidase” value in assay [11] is recorded as 5%. This molecule also came in with an IL-2 in assay [12] of 0.00 units/ml.

`O[C@H]1[C@H](O)[C@@H](O)CN2CC[C@H](O)[C@H]12` [Castanospermine (20), Castanospermine, reference compound]: the inhibition at 1000 µg/mL in assay [1] is 3%; in assay [15] (1 mg/ml, read-out: % inhibition, gluc (yeast)), -8%; in [7], 9%; in assay [16], -3%; in [9] it was 77%. Further, the inhibition at 700 µM in assay [13] and in [18] was > 50% throughout. For the same molecule, in [2], the “% inhibition, N-acetyl-β-gluc” value was 16%. In addition, the “% inhibition, gluc (Bacillus)” value in assay [3] came out at 6%. Besides, in assay [14], the “inhibition of rabbit small intestine sucrase” value is reported as “inhibited”. Further, in [6], the “% inhibition, Naringinase” value is 39%. For the same molecule, the “inhibition of yeast α-D-glucosidase” value in assay [15] (800 μM) is listed as “not being inhibitory”. For the same molecule, the “% inhibition, galactosidase” value in [17] was 16%. Moreover, the “IFN-γ secretion/production in splenocytes” value in assay [10] was “inhibits”. In addition, the IFN-γ in [10] (Table 3.2, + αCD3) is 9.0 ng/mL; in [10] (Table 3.2, treatment alone), <1.0 ng/mL. For the same molecule, the Ki in assay [11] came out at 9 µM. In addition, the “% inhibition, glucosidase” value in [11] is on record as 88%. In assay [19] (initial rate, competition with labelled D-glucose, control 240), this molecule gave a Glucose uptake of 225 pmol/s/mg. Further, in assay [19] (versus control), the “glucose transport, effect” value is listed as “slightly inhibited”. In assay [20], 8 µM corresponded to half-maximal inhibition (IC50).

In general, inhibition refers to the drop in the measured response relative to a control, in per cent. Usually Ki stands for the equilibrium dissociation constant of an inhibitor or competing ligand from its target. Read a low Ki as tighter binding. As a reminder, the IC50 is the concentration that inhibits the measured activity by half. A lower IC50 goes with higher potency.
